Patent US4774248A, “Methods of treating depression and depressive states using 5-phenyl-1,4,5,6-tetrahydropyrimidine derivatives” (priority 1985, dated 1988)
Entries after “also recorded” stand apart in the source; their conditions may differ.

Key:
[1] = system: hypothermia, righting behavior and stereotypies induced by apomorphine; experiment: Interaction with apomorphine in mice; assay type: in vivo; settings: i.p.
Description: (§1) The results of toxicological and neuropsychopharmacological tests which were carried out with the products according to the invention have been summarized below. In these tests, solutions of the said products in distilled water were administered intraperitoneally in a volume of 20 ml/kg to male mice and in a volume of 5 ml/kg to male rats.
CRL 41 378 is administered to groups of 6 mice 30 minutes before the subcutaneous injection of 1 or 16 mg/kg of apomorphine.

[2] = system: hypothermia and ptosis induced by reserpine; experiment: Interaction with reserpine; assay type: in vivo; settings: mice, i.p.; reserpine 2.5 mg/kg
Description: as §1
Four hours after the intraperitoneal injection of 2.5 mg/kg of reserpine, groups of 12 mice receive CRL 41 378.

[3] = system: rats; experiment: Overall behavior and reactivities in rats; assay type: in vivo; settings: i.p.
Description: as §1
(§2) Groups of 3 animals are observed before and then 0.25 h, 0.50 h, 1 h, 2 h, 3 h and 24 h after the administration of CRL 41 378. The following observations are made:
(§3) Groups of 3 animals are observed before and then 0.25 h, 0.50 h, 1 h, 2 h, 3 h and 24 h after the administration of CRL 41 329.

[4] = system: hypothermia, trembling and peripheral cholinergic symptoms induced by oxotremorine; experiment: Interaction with oxotremorine; assay type: in vivo; settings: mice, i.p.; oxotremorine 0.5 mg/kg
Description: as §1
CRL 41 378 is administered to groups of 6 mice 0.5 h before the intraperitoneal injection of 0.5 mg/kg of oxotremorine.

[5] = system: mice; experiment: Motility reduced by hypoxic aggression (acute hypobaric anoxia); assay type: in vivo; settings: i.p.
Description: In these tests, solutions of the said products in distilled water were administered intraperitoneally in a volume of 20 ml/kg to male mice and in a volume of 5 ml/kg to male rats.

[6] = system: mice; experiment: Intergroup aggressiveness; assay type: in vivo; settings: mice, i.p.
Description: as §1
After they have stayed for 3 weeks in the two halves of a cage divided by an opaque partition, groups of 3 mice receive CRL 41 378. Half an hour later, the two groups from the same cage are brought together by removal of the partition and the number of fights which occur in 10 minutes is noted.

[7] = system: mice; experiment: Electric shock; assay type: in vivo; settings: i.p.
Description: as §1
The test is performed on groups of 10 mice 30 minutes after the administration of CRL 41 378.

[8] = system: mice; experiment: Overall behavior and reactivities in mice; assay type: in vivo; settings: i.p.
Description: as §1, §2, §3

[9] = system: mice; experiment: Spontaneous motility (actimeter); assay type: in vivo; settings: i.p.
Description: as §1
0.5 h after they have received CRL 41 378, the mice (6 per dose, 12 control animals) are placed in an actimeter, where their motility is recorded for 30 minutes.

[10] = system: male mice; experiment: Acute toxicity, intraperitoneal (LD0, LD30, LD60, LD100); assay type: in vivo
Description: as §1

[11] = system: mice; experiment: Motility reduced by habituation to the enclosure; assay type: in vivo; settings: i.p.
Description: as §1
After they have stayed in the actimeters for 18 hours, the mice (6 per dose, 12 control animals) receive CRL 41 378. They are immediately returned to their respective enclosures and, half an hour later, their motility is recorded for 30 minutes.

[12] = system: central nervous system (CNS); experiment: Neuropsychopharmacological profile (conclusions of the tests); assay type: in vivo, mice and rats; settings: for overall neuropsychopharmacological profile: summary
Description: as §1

[13] = system: mice; experiment: Behavioral despair (forced immersion); assay type: in vivo; settings: mice which have been forcibly immersed, i.p.
Description: as §1
Half an hour after they have received CRL 41 378, groups of 6 mice are placed in a beaker filled with water to a height of 6 cm. The total period of immobility between the 2nd and 6th minutes following immersion is noted.

[14] = system: pregnant rabbits; experiment: Teratogenic effects on pregnant rabbits; assay type: in vivo
[15] = system: trembling and head twitches induced by 5-hydroxytryptophan (5-HTP); experiment: Interaction with 5-hydroxytryptophan in association with an MAOI (nialamide); assay type: in vivo, male mice; settings: for all the effects of 5-HTP: reference substances, in the presence of an MAOI; for trembling: reference β-adrenergic stimulants
Description: The purpose of the procedure used is to investigate the activity of each product according to the invention as regards the trembling induced by 5-hydroxytryptophan (5-HTP) in association with an MAOI (in this case nialamide).
Each test product, in solution in distilled water, is administered intraperitoneally in a volume of 20 ml/kg to male mice.
Groups of 10 mice receive nialamide (20 mg/kg, administered gastrically) at time T-18 h, each test product at time T-0.5 h and then (±)-5-HTP (20 mg/kg, administered intraperitoneally) at time T. Immediately after the injection of the (±)-5-HTP, the mice are individually placed in transparent plastic boxes. The generalized trembling, the partial trembling and the head twitches are noted on a yes/no basis for 2 h.

[16] = system: hypothermia induced by apomorphine; experiment: Interaction with apomorphine by gastric administration; assay type: in vivo; settings: Mus musculus, male mice, apomorphine 16 mg/kg s.c., read-out: dose as from which the hypothermia induced by apomorphine is opposed
Description: Each test product is administered gastrically to male mice, in a volume of 20 ml/kg, 0.50 h before the subcutaneous injection of 16 mg/kg of apomorphine.

[17] = system: depressions and depressive states; experiment: Clinical trials in depression and depressive states; assay type: in vivo, human
Description: The clinical trials which have been undertaken have made it possible to determine that the daily dose to be administered orally to adults, in the treatment of depressions and depressive states, is generally between 3 and 120 mg for the products of the formulae Ia and Ib according to the invention.

[18] = i.p., nialamide + (±)-5-HTP, male mice

Structure (SMILES): CN1C=NCC(c2ccccc2)C1.Cl (stereo not drawn) [CRL 41 337, 1-methyl-5-phenyl-1,4,5,6-tetrahydropyrimidine hydrochloride]
- action on hypothermia induced by apomorphine [1]: antagonism of the hypothermia induced by apomorphine, reserpine and oxotremorine
- action on hypothermia induced by reserpine [2]: antagonism of the hypothermia induced by apomorphine, reserpine and oxotremorine
- action on ptosis induced by reserpine [2]: antagonism of the ptosis induced by reserpine
- overall behavior and reactivities ([3]; 1 and 4 mg/kg): no distinct modification of the behavior and reactivities compared with the control animals
- overall behavior and reactivities ([3]; 16 and 64 mg/kg): mydriasis
- action on hypothermia induced by oxotremorine [4]: antagonism of the hypothermia induced by apomorphine, reserpine and oxotremorine
- motor recovery after acute hypobaric hypoxia [5]: at high doses, CRL 41 337 paradoxically causes an improvement in the motor recovery of mice after acute hypobaric hypoxia
- intergroup aggressiveness (number of fights) [6]: a decrease in the intergroup aggressiveness
- lethal effects of electric shock [7]: at a high dose, CRL 41 337 causes aggravation of the lethal effects of electric shock
- overall behavior and reactivities ([8]; 128 mg/kg): moderate hypothermia (-1.6 °C one hour after administration) for 3 h
- moderate hypothermia ([8]; 128 mg/kg, one hour after administration): -1.6 °C
- overall behavior and reactivities ([8]; 2 to 32 mg/kg): no distinct modification of the behavior and reactivities compared with the control animals
- spontaneous motor activity [9]: a decrease in the motor activity
- LD0 (maximum non-lethal dose) ([10]; intraperitoneal): greater than 256 mg/kg
- LD60 ([10]; intraperitoneal): about 500 mg/kg
- LD100 (minimum dose lethal to all the animals) ([10]; intraperitoneal): less than or equal to 1000 mg/kg
- resumption in the motor activity of mice accustomed to their enclosure [11]: a resumption in the motor activity of mice accustomed to their enclosure
- antidepressant effects ([12]; i.p.): antidepressant effects
- peripheral anticholinergic activity ([12]; i.p.): no anticholinergic action
- stimulant effects ([12]; i.p.): no stimulation of the spontaneous motor activity
- peripheral α-adrenergic stimulant effects ([12]; i.p., hydrochloride): peripheral α-adrenergic stimulant effects; also recorded: mydriasis in rats
- sedative effects ([12]; i.p., hydrochloride): sedative effects; also recorded: hypothermia
- overall neuropsychopharmacological profile ([12]; hydrochloride): acts principally as an antidepressant; also recorded: resemble those of β-adrenergic stimulants
- period of immobility ([13]; hydrochloride): no modification of the period of immobility due to despair; also recorded: no effect on the immobility due to despair

Structure (SMILES): CC1=NCC(c2ccccc2)CN1.Cl (stereo not drawn) [CRL 41 352, 2-methyl-5-phenyl-1,4,5,6-tetrahydropyrimidine hydrochloride]
- teratogenic effects [14]: devoid of harmful teratogenic effects on pregnant rabbits
- action on hypothermia induced by apomorphine [1]: significant antagonism (as from the lowest doses used) of the hypothermia induced by apomorphine and oxotremorine
- analogy with β-adrenergic stimulants in the 5-HTP procedure ([15]; 5-HTP + MAOI): effects analogous to those of isoprenaline
- intensity of potentiation of 5-HTP effects ([15]; higher doses, 5-HTP + MAOI, male mice): the potentiation being very intense at the doses of 8 to 32 mg/kg
- head twitches [15, 18]: distinctly potentiate the partial trembling and the head twitches
- partial trembling [15, 18]: distinctly potentiate the partial trembling and the head twitches
- action on hypothermia induced by reserpine [2]: more moderate antagonism of the hypothermia induced by reserpine
- overall behavior and reactivities ([3]; 4 mg/kg and 16 mg/kg): mydriasis
- overall behavior and reactivities ([3]; 16 mg/kg): a decrease in the breathing rate
- action on hypothermia induced by oxotremorine [4]: significant antagonism (as from the lowest doses used) of the hypothermia induced by apomorphine and oxotremorine
- minimal effective dose [16]: ≥ 0.5 mg/kg
- intergroup aggressiveness (number of fights) [6]: a decrease in the number of fights in the intergroup aggressiveness test
- overall behavior and reactivities ([8]; 0.5 mg/kg, 2 mg/kg, 8 mg/kg and 32 mg/kg): no distinct modification of the behavior and reactivities
- effectiveness in ambulant patients with depressive symptomatology ([17]; asthenia, slowing down or both psycho-intellectual and motor inhibition): particularly effective
- results in human therapy (depression) ([17]; daily oral administration to adults): excellent results
- toxic signs in the animals treated ([10]; 64 mg/kg i.p.): all the animals treated exhibit sedation and a decrease in the breathing rate
- LD0 (maximum non-lethal dose) ([10]; intraperitoneal): greater than 64 mg/kg
- LD30 ([10]; intraperitoneal): ~128 mg/kg
- resumption in the motor activity of mice accustomed to their enclosure [11]: a resumption in the motor activity of mice accustomed to their enclosure
- antidepressant effects ([12]; i.p.): antidepressant effects which are very distinct
- sedative effects ([12]; i.p.): sedative effects appearing at very high doses
- stimulant effects ([12]; i.p.): a stimulant effect which is very moderate, appearing at high doses
- overall neuropsychopharmacological profile [12]: principally an antidepressant having a very slight stimulant component and a very weak sedative component
- period of immobility [13]: no decrease in the period of immobility due to "despair"

Structure (SMILES): CC(N)Cc1ccccc1 (stereo not drawn) [amphetamine, reference compound]
- all the effects of 5-HTP [15]: potentiate all the effects of 5-HTP in the presence of an MAOI

Structure (SMILES): CNCCCN1c2ccccc2CCc2ccccc21 [desipramine, reference compound]
- all the effects of 5-HTP [15]: potentiate all the effects of 5-HTP in the presence of an MAOI

Structure (SMILES): CCNC(C)Cc1cccc(C(F)(F)F)c1 (stereo not drawn) [fenfluramine, reference compound]
- all the effects of 5-HTP [15]: potentiate all the effects of 5-HTP in the presence of an MAOI

Structure (SMILES): CC(Cc1ccc(O)cc1)NCC(O)c1cc(O)cc(O)c1 (stereo not drawn) [fenoterol, reference compound]
- head twitches [15, 18]: moderate potentiation of the head twitches
- trembling ([15]; 5-HTP + MAOI): distinct potentiation of the trembling

Structure (SMILES): CC(C)NCC(O)c1ccc(O)c(O)c1 (stereo not drawn) [isoprenaline, reference compound]
- head twitches [15, 18]: distinct potentiation of the trembling and head twitches
- trembling ([15]; 5-HTP + MAOI): distinct potentiation of the trembling and head twitches

Structure (SMILES): CC(C)NCC(O)c1cc(O)cc(O)c1 (stereo not drawn) [ociprenaline, reference compound]
- head twitches [15, 18]: no modification of the trembling or head twitches
- trembling ([15]; 5-HTP + MAOI): no modification of the trembling or head twitches

Structure (SMILES): CC(NCCc1ccc(O)cc1)C(O)c1ccc(O)cc1 (stereo not drawn) [ritodrine, reference compound]
- head twitches [15, 18]: no modification of the head twitches
- trembling ([15]; 5-HTP + MAOI): moderate potentiation of the trembling

Structure (SMILES): CC(C)(C)NCC(O)c1ccc(O)c(CO)c1 (stereo not drawn) [salbutamol, reference compound]
- head twitches [15, 18]: no modification of the head twitches
- trembling ([15]; 5-HTP + MAOI): moderate potentiation of the trembling

Structure (SMILES): CC(C)(C)NCC(O)c1cc(O)cc(O)c1 (stereo not drawn) [terbutaline, reference compound]
- head twitches [15, 18]: no modification of the trembling or head twitches
- trembling ([15]; 5-HTP + MAOI): no modification of the trembling or head twitches
